Source: ChEMBL document CHEMBL4190315, “Novel cinnamamide-dibenzylamine hybrids: Potent neurogenic agents with antioxidant, cholinergic, and neuroprotective properties as innovative drugs for Alzheimer's disease” (Eur J Med Chem, 2017)
Activity calls are given as the source filed them. The rule behind the calls is not given here.

Tests used:
Cholinesterase [1] = biological target: Cholinesterase (Equus caballus, UniProt P81908); experiment: Inhibition of equine serum BChE using S-butyrylthiocholine iodide as substrate preincubated for 5 mins followed by substrate addition measured up to 180 secs by spectrophotometric analysis
Chain of Cholinesterase (Equus caballus, UniProt P81908) (P81908 whole entry): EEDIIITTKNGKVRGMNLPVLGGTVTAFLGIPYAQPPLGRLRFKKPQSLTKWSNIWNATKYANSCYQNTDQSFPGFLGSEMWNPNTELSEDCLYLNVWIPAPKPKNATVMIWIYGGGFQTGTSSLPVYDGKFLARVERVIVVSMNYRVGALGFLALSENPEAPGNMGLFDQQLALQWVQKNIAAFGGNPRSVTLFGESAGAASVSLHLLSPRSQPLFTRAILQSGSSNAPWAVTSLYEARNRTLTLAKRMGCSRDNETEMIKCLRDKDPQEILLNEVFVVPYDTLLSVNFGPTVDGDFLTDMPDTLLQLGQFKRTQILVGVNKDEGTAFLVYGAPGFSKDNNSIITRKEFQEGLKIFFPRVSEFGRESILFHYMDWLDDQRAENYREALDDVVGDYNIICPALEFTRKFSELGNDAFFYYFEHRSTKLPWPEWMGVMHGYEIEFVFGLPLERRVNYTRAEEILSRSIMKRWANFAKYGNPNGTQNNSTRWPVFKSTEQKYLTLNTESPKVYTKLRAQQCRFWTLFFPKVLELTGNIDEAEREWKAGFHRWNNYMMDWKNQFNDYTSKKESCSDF

[2] = biological target: Acetylcholinesterase (Electrophorus electricus) (UniProt O42275); experiment: Inhibition of electric eel AChE at 0.001 to 100 uM using acetylthiocholine iodide as substrate preincubated for 5 mins followed by substrate addition measured up to 180 secs by spectrophotometric analysis relative to control
Chain of Acetylcholinesterase (Electrophorus electricus) (O42275 24-633 limits assumed): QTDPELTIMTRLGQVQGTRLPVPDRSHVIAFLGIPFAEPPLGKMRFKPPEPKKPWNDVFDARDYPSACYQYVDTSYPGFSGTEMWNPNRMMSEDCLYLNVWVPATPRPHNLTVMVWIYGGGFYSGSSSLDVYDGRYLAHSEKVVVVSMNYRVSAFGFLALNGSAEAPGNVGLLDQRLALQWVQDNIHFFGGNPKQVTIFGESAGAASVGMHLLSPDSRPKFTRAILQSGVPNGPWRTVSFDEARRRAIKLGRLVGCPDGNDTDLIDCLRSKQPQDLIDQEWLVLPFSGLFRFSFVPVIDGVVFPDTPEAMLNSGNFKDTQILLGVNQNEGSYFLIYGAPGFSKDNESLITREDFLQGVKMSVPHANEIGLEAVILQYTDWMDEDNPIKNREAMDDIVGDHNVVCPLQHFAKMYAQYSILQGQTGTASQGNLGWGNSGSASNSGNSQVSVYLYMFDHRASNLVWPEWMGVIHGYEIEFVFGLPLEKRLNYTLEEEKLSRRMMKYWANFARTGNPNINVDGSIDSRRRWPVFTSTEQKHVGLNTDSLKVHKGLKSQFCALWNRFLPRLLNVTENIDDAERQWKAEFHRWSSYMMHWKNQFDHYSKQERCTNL

[3] = biological target: Amyloid-beta precursor protein (Homo sapiens) (UniProt P05067); experiment: Inhibition of HFIP pretreated amyloid beta (1 to 42) (unknown origin) self-aggregation at 20 uM after 48 hrs by thioflavin T fluorescence assay relative to control
Chain of Amyloid-beta precursor protein (Homo sapiens) (P05067 whole entry): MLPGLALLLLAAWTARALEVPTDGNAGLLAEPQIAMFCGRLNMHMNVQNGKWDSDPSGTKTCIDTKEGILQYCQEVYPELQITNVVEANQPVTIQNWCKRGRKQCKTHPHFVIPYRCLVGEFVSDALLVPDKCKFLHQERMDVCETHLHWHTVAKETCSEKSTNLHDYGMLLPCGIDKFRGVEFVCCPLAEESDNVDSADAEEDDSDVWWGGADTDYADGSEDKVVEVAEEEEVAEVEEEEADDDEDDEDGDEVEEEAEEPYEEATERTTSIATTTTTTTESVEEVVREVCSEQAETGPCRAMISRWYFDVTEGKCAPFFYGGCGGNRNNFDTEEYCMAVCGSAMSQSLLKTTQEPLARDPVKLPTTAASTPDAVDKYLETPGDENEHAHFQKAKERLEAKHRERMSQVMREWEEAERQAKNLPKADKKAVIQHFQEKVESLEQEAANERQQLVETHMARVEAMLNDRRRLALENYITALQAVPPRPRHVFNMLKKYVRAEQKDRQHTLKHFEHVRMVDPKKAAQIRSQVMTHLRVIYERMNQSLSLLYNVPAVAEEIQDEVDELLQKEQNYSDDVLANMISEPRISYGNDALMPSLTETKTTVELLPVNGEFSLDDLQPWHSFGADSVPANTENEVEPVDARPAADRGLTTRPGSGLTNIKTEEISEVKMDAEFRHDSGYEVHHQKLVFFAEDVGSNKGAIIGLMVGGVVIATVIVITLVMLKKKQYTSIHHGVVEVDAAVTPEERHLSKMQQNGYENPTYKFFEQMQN

[4] = Antioxidant activity assessed as inhibition of AAPH-induced peroxyl radical generation measured as trolox equivalent preincubated for 15 mins followed by AAPH addition measured every min for 120 mins by ORAC-FL assay; type: functional
Acetylcholinesterase [5] = biological target: Acetylcholinesterase (Electrophorus electricus, UniProt O42275); experiment: Inhibition of electric eel AChE using acetylthiocholine iodide as substrate preincubated for 5 mins followed by substrate addition measured up to 180 secs by spectrophotometric analysis
Chain of Acetylcholinesterase (Electrophorus electricus, UniProt O42275) (O42275 whole entry): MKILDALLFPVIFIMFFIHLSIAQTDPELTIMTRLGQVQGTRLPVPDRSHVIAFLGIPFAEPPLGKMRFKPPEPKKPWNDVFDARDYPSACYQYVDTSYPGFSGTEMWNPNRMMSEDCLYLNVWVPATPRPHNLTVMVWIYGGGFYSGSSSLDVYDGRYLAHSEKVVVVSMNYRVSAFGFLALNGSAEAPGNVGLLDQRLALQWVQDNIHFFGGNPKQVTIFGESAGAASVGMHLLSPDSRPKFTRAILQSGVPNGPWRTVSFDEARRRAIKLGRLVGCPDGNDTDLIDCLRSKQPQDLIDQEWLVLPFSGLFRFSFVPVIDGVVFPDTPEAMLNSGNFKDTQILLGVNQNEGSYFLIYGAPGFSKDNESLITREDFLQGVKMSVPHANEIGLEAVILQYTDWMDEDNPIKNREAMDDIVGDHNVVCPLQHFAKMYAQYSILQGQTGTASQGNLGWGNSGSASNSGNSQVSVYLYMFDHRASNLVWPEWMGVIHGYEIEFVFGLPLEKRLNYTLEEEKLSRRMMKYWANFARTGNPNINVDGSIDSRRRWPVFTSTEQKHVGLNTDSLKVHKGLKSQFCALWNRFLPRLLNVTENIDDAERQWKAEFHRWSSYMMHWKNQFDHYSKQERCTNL

[6] = Selectivity index, ratio of IC50 for equine serum BChE to IC50 for electric eel AChE
Cholinesterase [7] = biological target: Cholinesterase (Homo sapiens, UniProt P06276); experiment: Inhibition of human serum BChE using S-butyrylthiocholine iodide as substrate preincubated for 5 mins followed by substrate addition measured up to 180 secs by spectrophotometric analysis
Chain of Cholinesterase (Homo sapiens, UniProt P06276) (P06276 whole entry): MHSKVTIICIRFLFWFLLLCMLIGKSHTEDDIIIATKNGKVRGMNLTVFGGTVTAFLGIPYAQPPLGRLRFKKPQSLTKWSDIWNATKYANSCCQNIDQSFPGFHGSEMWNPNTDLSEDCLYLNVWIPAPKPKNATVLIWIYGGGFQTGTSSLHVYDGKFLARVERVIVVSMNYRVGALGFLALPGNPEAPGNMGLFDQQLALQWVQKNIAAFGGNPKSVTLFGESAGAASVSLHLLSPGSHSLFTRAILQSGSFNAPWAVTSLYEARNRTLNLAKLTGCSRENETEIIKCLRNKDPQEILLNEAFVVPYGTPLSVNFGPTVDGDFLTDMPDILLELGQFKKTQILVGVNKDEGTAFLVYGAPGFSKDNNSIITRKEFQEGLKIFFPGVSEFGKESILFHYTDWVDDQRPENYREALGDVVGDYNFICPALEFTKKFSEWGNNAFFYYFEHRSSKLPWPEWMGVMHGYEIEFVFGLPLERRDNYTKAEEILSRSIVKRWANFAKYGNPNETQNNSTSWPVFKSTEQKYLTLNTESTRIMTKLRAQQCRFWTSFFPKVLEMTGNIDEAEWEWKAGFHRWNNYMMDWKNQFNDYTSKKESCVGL

Acetylcholinesterase [8] = biological target: T1, Acetylcholinesterase (Homo sapiens, UniProt P22303); experiment: Inhibition of human erythrocytic AChE using acetylthiocholine iodide as substrate preincubated for 5 mins followed by substrate addition measured up to 180 secs by spectrophotometric analysis
T1 sequence (P22303 whole entry): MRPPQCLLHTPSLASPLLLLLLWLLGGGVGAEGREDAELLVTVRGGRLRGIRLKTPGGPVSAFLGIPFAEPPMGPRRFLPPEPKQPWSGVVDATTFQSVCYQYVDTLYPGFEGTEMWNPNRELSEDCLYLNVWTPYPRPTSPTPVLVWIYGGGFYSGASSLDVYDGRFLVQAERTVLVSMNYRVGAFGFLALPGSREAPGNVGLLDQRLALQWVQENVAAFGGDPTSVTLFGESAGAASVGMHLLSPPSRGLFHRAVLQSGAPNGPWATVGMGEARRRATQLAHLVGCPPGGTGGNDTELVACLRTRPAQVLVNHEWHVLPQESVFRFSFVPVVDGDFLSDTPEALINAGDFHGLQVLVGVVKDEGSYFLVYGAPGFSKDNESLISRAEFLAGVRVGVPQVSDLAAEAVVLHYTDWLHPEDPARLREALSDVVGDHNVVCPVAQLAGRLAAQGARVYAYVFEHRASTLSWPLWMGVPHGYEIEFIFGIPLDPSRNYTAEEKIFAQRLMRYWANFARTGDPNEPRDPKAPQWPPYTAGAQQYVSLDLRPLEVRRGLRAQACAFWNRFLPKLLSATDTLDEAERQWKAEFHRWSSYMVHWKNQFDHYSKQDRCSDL

PC-12 [9] = experiment: Neuroprotective activity against H2O2-induced oxidative damage in rat PC12 cells assessed as increase in cell viability at 1.25 to 25 uM preincubated for 2 hrs followed by H2O2 challenge measured after 24 hrs by MTT assay; type: functional, cell-based
PC-12 [10] = experiment: Cytotoxicity against rat PC12 cells at 1.25 to 50 uM after 24 hrs by MTT assay; type: cell-based; conditions: pc-12, 24 h
[11] = Effective permeability of compound at 50 ug/mL after 16 hrs by PAMPA-BBB assay
PC-12 [12] = experiment: Neuroprotective activity against H2O2-induced oxidative damage in rat PC12 cells assessed as increase in cell viability at 25 uM preincubated for 2 hrs followed by H2O2 challenge measured after 24 hrs by MTT assay; type: functional, cell-based
Mus musculus [13] = experiment: Reversal of scopolamine-induced memory impairment in Kunming mouse assessed as increase in step-down latency time at 5 to 15 mg/kg, po administered 60 mins prior to training trial followed by scopolamine challenge at 30 mins post dose measured 24 hrs after training trial by passive avoidance test; type: functional, organism-based
Acetylcholinesterase [14] = biological target: T1, Acetylcholinesterase; experiment: Mixed-type inhibition of AChE (unknown origin) at 2.25 to 9 uM using acetylthiocholine iodide as substrate preincubated for 5 mins followed by substrate addition measured up to 180 secs by Lineweaver-Burk plot analysis
[15] = Inhibition of Cu2+-mediated aggregation of amyloid beta (1 to 42) (unknown origin) assessed as reduction in fibril formation at 50 uM after 24 hrs by transmission electron microscopic analysis
[16] = Metal chelating activity assessed as mole fraction of compound required to show 1:2 stoichiometry for Cu2+-compound complex at 25 uM after 30 mins by Job's plot analysis
[17] = Metal chelating activity assessed as Fe2+-compound complex formation at 25 uM after 30 mins by UV-vis spectrophotometric method
Mus musculus [18] = experiment: Reversal of scopolamine-induced memory impairment in Kunming mouse assessed as increase in step-down latency time at 5 mg/kg, po administered 60 mins prior to training trial followed by scopolamine challenge at 30 mins post dose measured 24 hrs after training trial by passive avoidance test; type: functional, organism-based
[19] = Metal chelating activity assessed as Fe3+-compound complex formation at 25 uM after 30 mins by UV-vis spectrophotometric method
[20] = Copper-chelating activity assessed as minimum absorption at 25 uM after 30 mins by UV-vis spectrophotometric method (reference value: 260 nanometer)
[21] = Copper-chelating activity assessed as red shift by measuring maximum absorption at 25 uM after 30 mins by UV-vis spectrophotometric method (reference value: 230 nanometer)
[22] = Metal chelating activity assessed as Zn2+-compound complex formation at 25 uM after 30 mins by UV-vis spectrophotometric method
[23] = Inhibition of Cu2+-mediated aggregation of amyloid beta (1 to 42) (unknown origin) at 50 uM after 24 hrs by thioflavin T fluorescence assay relative to control
[24] = biological target: Cholinesterase (Equus caballus) (UniProt P81908); experiment: Inhibition of equine serum BChE at 0.001 to 100 uM using S-butyrylthiocholine iodide as substrate preincubated for 5 mins followed by substrate addition measured up to 180 secs by spectrophotometric analysis relative to control
Chain of Cholinesterase (Equus caballus) (P81908 whole entry): as the sequence (P81908 whole entry) above

| SMILES | IC50 (Cholinesterase [1]) [µM] | inhibition [3] [%] | Activity [4] [equiv] | IC50 (Acetylcholinesterase [5]) [µM] | Ratio IC50 [6] | IC50 (Cholinesterase [7]) [µM] | IC50 (Acetylcholinesterase [8]) [µM] | Papp at 16 h, 50 ug/mL [11] [×10⁻⁶ cm/s] | further results |
| --- | --- | --- | --- | --- | --- | --- | --- | --- | --- |
| CN(Cc1ccccc1)Cc1ccc(NC(=O)c2ccccc2)cc1 | 5.3 | 35.2 | 0.36 |  |  |  |  |  | inhibition [2]: 38% |
| CCN(Cc1ccccc1)Cc1ccc(NC(=O)Cc2ccccc2)cc1 | 13.9 | 38.1 | 0.26 | 6.63 | 1.5 |  |  |  |  |
| CCN(Cc1ccccc1)Cc1ccc(NC(=O)Cc2ccc(OC)c(O)c2)cc1 | 3.29 | 43.5 | 1.48 | 1.89 | 1.76 | 1.46 | 2.76 |  |  |
| COc1ccc(CC(=O)Nc2ccc(CN(C)Cc3ccccc3)cc2)cc1OC | 1.48 | 38.5 | 0.5 | 1.06 | 1.4 | 1.05 | 1.85 |  |  |
| COc1cc(/C=C/C(=O)Nc2ccc(CN(C)Cc3ccccc3)cc2)ccc1O | 8.78 | 56.8 | 2.86 | 3.99 | 2.2 | 5.12 | 8.32 | 6.21 | Activity (PC-12 [9]): Active; Activity (PC-12 [10]): Non-Toxic |
| COc1ccc(/C=C/C(=O)Nc2ccc(CN(C)Cc3ccccc3)cc2)cc1OC | 3.72 | 56.6 | 1.28 | 1.94 | 1.9 | 1.56 | 2.96 | 7.56 |  |
| Cc1c(C)c2c(c(C)c1O)CCC(C)(C(=O)O)O2 (stereo not drawn) |  |  |  |  |  |  |  |  | Activity (PC-12 [12]): Active |
| Clc1cccc(Cl)c1N=C1NCCN1 [CLONIDINE] |  |  |  |  |  |  |  | 3.1 |  |
| CN(Cc1ccccc1)Cc1ccc(NC(=O)/C=C/c2ccc(O)c(O)c2)cc1 | 9.72 | 56.2 | 4.24 | 4.64 | 2.1 | 8.01 | 5.42 | 5.34 | Activity (Mus musculus [13]): Active; Activity (PC-12 [9]): Active; inhibition (Acetylcholinesterase [14]): Active; Activity (PC-12 [10]): Non-Toxic; inhibition [15]: Active; Activity (mole fraction) [16]: 0.67; Activity [17]: inactive; Activity (Mus musculus [18]): Active; Activity [19]: Active; Activity [20]: 274 nm; Activity [21]: 245 nm; Activity [22]: Active; inhibition [23]: 87.4% |
| COc1cc(/C=C/C(=O)O)ccc1O |  |  | 2.56 |  |  |  |  |  |  |
| COc1ccc(/C=C/C(=O)Nc2ccc(CN(C)Cc3ccccc3)cc2)cc1 | 8.21 | 57.8 | 1.34 | 3.72 | 2.2 | 6.4 | 4.56 |  |  |
| CN(Cc1ccccc1)Cc1ccc(NC(=O)Cc2ccc(O)c(O)c2)cc1 | 2.28 | 40.5 | 3.26 | 1.68 | 1.36 | 0.95 | 4.63 | 3.9 | Activity (PC-12 [9]): Active; Activity (PC-12 [10]): Non-Toxic |
| CN(Cc1ccccc1)Cc1ccc(NC(=O)/C=C/c2ccc([N+](=O)[O-])cc2)cc1 |  | 52.8 | 0.8 |  |  |  |  |  | inhibition [24]: 24%; inhibition [2]: 35% |
| COc1ccc2[nH]cc(CCNC(C)=O)c2c1 |  |  |  |  |  |  |  |  | Activity (PC-12 [12]): Active |
| CN(Cc1ccccc1)Cc1ccc(NC(=O)/C=C/c2ccc(Cl)cc2)cc1 |  | 58.6 | 0.82 |  |  |  |  |  | inhibition [24]: 32%; inhibition [2]: 41% |
| CCN(CC)CCCC(C)Nc1ccnc2cc(Cl)ccc12 (stereo not drawn) |  |  |  |  |  |  |  |  | inhibition [23]: 48.8% |

| SMILES | IC50 (Cholinesterase [1]) [µM] | inhibition [3] [%] | Activity [4] [equiv] | IC50 (Acetylcholinesterase [5]) [µM] | Ratio IC50 [6] | IC50 (Cholinesterase [7]) [µM] | IC50 (Acetylcholinesterase [8]) [µM] | Papp at 16 h, 50 ug/mL [11] [×10⁻⁶ cm/s] | further results |
| --- | --- | --- | --- | --- | --- | --- | --- | --- | --- |
| CCN(Cc1ccccc1)Cc1ccc(NC(=O)Cc2ccc(OC)c(OC)c2)cc1 | 3.3 | 40.6 | 0.48 | 1.55 | 2.13 | 1.21 | 3.22 |  |  |
| CN(Cc1ccccc1)Cc1ccc(NC(=O)Cc2ccc(O)cc2)cc1 | 3.48 | 38.5 | 1.38 | 2.26 | 2.12 | 4.32 | 3.24 |  |  |
| CCN(Cc1ccccc1)Cc1ccc(NC(=O)c2ccccc2)cc1 | 13.9 | 37.1 | 0.32 |  |  |  |  |  | inhibition [2]: 33% |
| COc1ccc(CC(=O)Nc2ccc(CN(C)Cc3ccccc3)cc2)cc1O | 2.4 | 42.5 | 1.5 | 1.05 | 2.29 | 1.29 | 3.04 | 4.37 | Activity (PC-12 [9]): Active; Activity (PC-12 [10]): Non-Toxic |
| CCN(Cc1ccccc1)Cc1ccc(NC(=O)CCc2ccccc2)cc1 | 13.9 | 36.1 | 0.32 |  |  |  |  |  | inhibition [2]: 34% |
| COc1cc2cc(-c3ccc(CN(C)Cc4ccccc4)cc3)c(=O)oc2cc1OC | 12.4 |  |  | 0.04 | 315 |  |  |  |  |
| CCN(Cc1ccccc1)Cc1ccc(NC(=O)Cc2ccc(O)cc2)cc1 | 4.45 | 42.1 | 1.35 | 3.82 | 1.16 | 2.03 | 6.5 |  |  |
| NCCc1ccc(O)c(O)c1 [DOPAMINE] |  |  |  |  |  |  |  | 0.45 |  |
| CN(Cc1ccccc1)Cc1ccc(NC(=O)CCc2ccccc2)cc1 | 5.29 | 35.2 | 0.3 |  |  |  |  |  | inhibition [2]: 45% |
| CN(Cc1ccccc1)Cc1ccc(NC(=O)/C=C/c2ccccc2)cc1 | 8.21 | 56.8 | 1.1 | 5.27 | 1.55 |  |  |  |  |
| CN1C(C(=O)Nc2ccccn2)=C(O)c2ccccc2S1(=O)=O [PIROXICAM] |  |  |  |  |  |  |  | 3.29 |  |
| CC(=O)[C@H]1CC[C@H]2[C@@H]3CCC4=CC(=O)CC[C@]4(C)[C@H]3CC[C@]12C [PROGESTERONE] |  |  |  |  |  |  |  | 8.62 |  |
| CN(Cc1ccccc1)Cc1ccc(NC(=O)Cc2ccccc2)cc1 | 5.28 | 33.5 | 0.38 | 3.24 | 1.63 | 4.95 | 5.8 |  |  |
| CCN(Cc1ccccc1)Cc1ccc(NC(=O)Cc2ccc(O)c(O)c2)cc1 | 5.95 | 42.1 | 3.25 | 3.63 | 1.54 | 2.4 | 7.26 | 4.41 | Activity (PC-12 [9]): Active; Activity (PC-12 [10]): Non-Toxic |
| CN(Cc1ccccc1)Cc1ccc(NC(=O)/C=C/c2ccc(O)cc2)cc1 | 9.5 | 56.6 | 2.13 | 4.85 | 1.95 |  |  |  |  |
